How the values were obtained:
[1] = test system: blend of Pseudomonas aeruginosa ATCC 15442, Staphylococcus aureus ATCC 6538, Escherichia coli ATCC 10536, Enterococcus hirae ATCC 10541 and Candida albicans …; assay: Antimicrobial activity, zone of inhibition on TSA Petri dishes (Example 4); format: cell-based; conditions: aqueous solution pH 8.3, [Ag+]=0.1%, 100 μl, 37° C. for 24 h
Protocol: The antimicrobial activity of an aqueous solution at pH 8.3 of Na^+3[Ag^+(MPA^2−)2]^3− with an ionic concentration of [Ag+]=0.1% was tested against the following blend of microorganism strains (bought from Diagnostic International Distribution S.p.A): Pseudomonas aeruginosa ATCC 15442, Staphylococcus aureus ATCC 6538, Escherichia coli ATCC 10536, Enterococcus hirae ATCC 10541 e Candida albicans ATCC 10231. For each microbial strain, the concentration of the blend was in the range 1.5×10^12−5×10^12 unity forming colonies (UFC). A volume of 100 μl of the blend was seeded in Petri dishes containing a non-selective culture medium TSA (Tryptone Soya Agar) and a sample of 100 μl of said aqueous solution of Na^+3[Ag^+(MPA^2−)2]^3− was put in the centre of each Petri dish in contact with the microbial blend. The Petri dishes were then incubated at 37° C. for 24 h.

SARS-Cov-2 [2] = assay: Cytopathic effect in VeroE6 cells infected with treated SARS-Cov-2, optical microscopy
SARS-Cov-2 [3] = assay: Antiviral effectiveness towards SARS-Cov-2: virus incubated on treated surface, replication in VeroE6 cells by qRT-PCR; format: cell-based; conditions: for ΔCt / Logarithmic difference: Ag+ 0.108% aqueous solution on surface; for ΔCt: vs untreated; for Logarithmic difference: vs untreated control

SMILES: Cc1nc([S-])sc1CC(=O)[O-].Cc1nc([S-])sc1CC(=O)[O-].[Ag+].[Na+].[Na+].[Na+] [Aqueous solution containing Ag, Na^+3[Ag^+(MPA^2−)2]^3−]
- zone of inhibition (of the microbial growth) [1]: circa 3 cm
- cytopathic effect (SARS-Cov-2 [2]; Ag+ 0.002%, 72 hours post-infection): small decrease of the cytopathic effect
- cytopathic effect compared to cells infected with untreated virus (SARS-Cov-2 [2]; Ag+ 0.108%, 48 hours post-infection): lower cytopathic effect
- ΔCt (SARS-Cov-2 [3]; virus 5 minutes, 24 hpi): 3.04
- Logarithmic difference (SARS-Cov-2 [3]; virus 5 minutes, 24 hpi): −0.91
- ΔCt (SARS-Cov-2 [3]; virus 5 minutes, 48 hpi): 1.91
- Logarithmic difference (SARS-Cov-2 [3]; virus 5 minutes, 48 hpi): −0.57
- ΔCt (SARS-Cov-2 [3]; virus 5 minutes, 72 hpi): 0.61
- Logarithmic difference (SARS-Cov-2 [3]; virus 5 minutes, 72 hpi): −0.18
- reduction of the viral charge (SARS-Cov-2 [3]; Ag+ 0.108%, at a time more distant from the infection): not significant
- decrease of the viral charge (SARS-Cov-2 [3]; Ag+ 0.108%, virus 5 minutes, 48 pci): 0.57 logarithms
- decrease of the viral charge (SARS-Cov-2 [3]; Ag+ 0.108%, virus 5 minutes, 24 h post-infection): 0.91 logarithms
- reduction of the viral charge (SARS-Cov-2 [3]; diluted aqueous solution, Ag+ 0.002%, virus 5 minutes, 24 hours post-infection): 0.82 logarithms

Source: patent US20240315241A1, “ANTIMICROBIAL POLYMERIC COMPOSITION” (priority 2021, published 2024)
